# ChEMBL document CHEMBL5030565, “Stapled Peptides Targeting SARS-CoV-2 Spike Protein HR1 Inhibit the Fusion of Virus to Its Cell Receptor” (J Med Chem, 2021)
# How the values were obtained:
# SARS-CoV-2 [1] = experiment: Antiviral activity against SARS-CoV-2 infected in Vero E6 cells assessed as reduction in viral replication at 12.5 uM preincubated for 30 mins followed by viral infection measured after 72 hrs by crystal violet staining based plaque assay; assay type: functional, Severe acute respiratory syndrome coronavirus 2; set-up: scale not given: the % may be the effect or the level left
# SARS-CoV-2 [2] = experiment: Antiviral activity against pseudotyped SARS-CoV-2 infected in Huh7 cells expressing hACE2 at 10 uM preincubated for 1 hr followed by cell infection measured after 2 days by bright-Glo luciferase assay; assay type: functional, Severe acute respiratory syndrome coronavirus 2, Huh-7; details: time 49 hrs
SMILES,Activity (SARS-CoV-2 [1]) [%],Activity (SARS-CoV-2 [2]) [%]
CC[C@H](C)[C@H](NC(=O)CNC(=O)[C@H](CO)NC(=O)[C@@H](NC(=O)[C@H](CC(=O)O)NC(C)=O)[C@@H](C)CC)C(=O)N[C@@H](CC(N)=O)C(=O)N[C@@H](C)C(=O)N[C@@H](CO)C(=O)N[C@H](C(=O)N[C@H](C(=O)N[C@@H](CC(N)=O)C(=O)N[C@H](C(=O)N[C@@]1(C)CCC/C=C\CCC[C@@](C)(C(=O)N[C@@H](CCCNC(=N)N)C(=O)N[C@@H](CC(C)C)C(=O)N[C@@H](CC(N)=O)C(=O)N[C@@H](CCC(=O)O)C(=O)N[C@H](C(=O)N[C@@H](C)C(=O)N[C@@H](CCCCN)C(=O)N[C@@H](CC(N)=O)C(=O)N[C@@H](CC(C)C)C(=O)N[C@@H](CC(N)=O)C(=O)N[C@@H](CCC(=O)O)C(=O)N[C@@H](CO)C(=O)N[C@@H](CC(C)C)C(=O)N[C@H](C(=O)N[C@@H](CC(=O)O)C(=O)N[C@@H](CC(C)C)C(=O)N[C@@H](CCC(N)=O)C(=O)N[C@@H](CCC(=O)O)C(=O)N[C@@H](CC(C)C)C(N)=O)[C@@H](C)CC)C(C)C)NC(=O)[C@H]([C@@H](C)CC)NC(=O)[C@H](CCC(=O)O)NC(=O)[C@H](CCCCN)NC1=O)[C@@H](C)CC)C(C)C)C(C)C,35,47.6
CC[C@H](C)[C@H](NC(=O)CNC(=O)[C@H](CO)NC(=O)[C@@H](NC(=O)[C@H](CC(=O)O)NC(C)=O)[C@@H](C)CC)C(=O)N[C@@H](CC(N)=O)C(=O)N[C@@H](C)C(=O)N[C@@H](CO)C(=O)N[C@H](C(=O)N[C@H](C(=O)N[C@@H](CC(N)=O)C(=O)N[C@H](C(=O)N[C@@H](CCC(N)=O)C(=O)N[C@@H](CCCCN)C(=O)N[C@@H](CCC(=O)O)C(=O)N[C@H](C(=O)N[C@@H](CC(=O)O)C(=O)N[C@@H](CCCNC(=N)N)C(=O)N[C@@]1(C)CCC/C=C\CCC[C@@](C)(C(=O)N[C@@H](CCCCN)C(=O)N[C@@H](CC(N)=O)C(=O)N[C@@H](CC(C)C)C(=O)N[C@@H](CC(N)=O)C(=O)N[C@@H](CCC(=O)O)C(=O)N[C@@H](CO)C(=O)N[C@@H](CC(C)C)C(=O)N[C@H](C(=O)N[C@@H](CC(=O)O)C(=O)N[C@@H](CC(C)C)C(=O)N[C@@H](CCC(N)=O)C(=O)N[C@@H](CCC(=O)O)C(=O)N[C@@H](CC(C)C)C(N)=O)[C@@H](C)CC)NC(=O)[C@H](C(C)C)NC(=O)[C@H](CCC(=O)O)NC(=O)[C@H](CC(N)=O)NC1=O)[C@@H](C)CC)[C@@H](C)CC)C(C)C)C(C)C,33.5,25.1
CC[C@H](C)[C@H](NC(=O)CNC(=O)[C@H](CO)NC(=O)[C@@H](NC(=O)[C@H](CC(=O)O)NC(C)=O)[C@@H](C)CC)C(=O)N[C@@H](CC(N)=O)C(=O)N[C@@H](C)C(=O)N[C@@H](CO)C(=O)N[C@H](C(=O)N[C@H](C(=O)N[C@@H](CC(N)=O)C(=O)N[C@H](C(=O)N[C@@H](CCC(N)=O)C(=O)N[C@@H](CCCCN)C(=O)N[C@@H](CCC(=O)O)C(=O)N[C@H](C(=O)N[C@@]1(C)CCC/C=C\CCC[C@@](C)(C(=O)N[C@H](C(=O)N[C@@H](C)C(=O)N[C@@H](CCCCN)C(=O)N[C@@H](CC(N)=O)C(=O)N[C@@H](CC(C)C)C(=O)N[C@@H](CC(N)=O)C(=O)N[C@@H](CCC(=O)O)C(=O)N[C@@H](CO)C(=O)N[C@@H](CC(C)C)C(=O)N[C@H](C(=O)N[C@@H](CC(=O)O)C(=O)N[C@@H](CC(C)C)C(=O)N[C@@H](CCC(N)=O)C(=O)N[C@@H](CCC(=O)O)C(=O)N[C@@H](CC(C)C)C(N)=O)[C@@H](C)CC)C(C)C)NC(=O)[C@H](CC(N)=O)NC(=O)[C@H](CC(C)C)NC(=O)[C@H](CCCNC(=N)N)NC1=O)[C@@H](C)CC)[C@@H](C)CC)C(C)C)C(C)C,35,27.8
CC[C@H](C)[C@H](NC(=O)CNC(=O)[C@H](CO)NC(=O)[C@@H](NC(=O)[C@H](CC(=O)O)NC(C)=O)[C@@H](C)CC)C(=O)N[C@@H](CC(N)=O)C(=O)N[C@@H](C)C(=O)N[C@@H](CO)C(=O)N[C@H](C(=O)N[C@H](C(=O)N[C@@H](CC(N)=O)C(=O)N[C@H](C(=O)N[C@@H](CCC(N)=O)C(=O)N[C@@H](CCCCN)C(=O)N[C@@]1(C)CCC/C=C\CCC[C@@](C)(C(=O)N[C@@H](CC(N)=O)C(=O)N[C@@H](CCC(=O)O)C(=O)N[C@H](C(=O)N[C@@H](C)C(=O)N[C@@H](CCCCN)C(=O)N[C@@H](CC(N)=O)C(=O)N[C@@H](CC(C)C)C(=O)N[C@@H](CC(N)=O)C(=O)N[C@@H](CCC(=O)O)C(=O)N[C@@H](CO)C(=O)N[C@@H](CC(C)C)C(=O)N[C@H](C(=O)N[C@@H](CC(=O)O)C(=O)N[C@@H](CC(C)C)C(=O)N[C@@H](CCC(N)=O)C(=O)N[C@@H](CCC(=O)O)C(=O)N[C@@H](CC(C)C)C(N)=O)[C@@H](C)CC)C(C)C)NC(=O)[C@H](CCCNC(=N)N)NC(=O)[C@H](CC(=O)O)NC(=O)[C@H]([C@@H](C)CC)NC1=O)[C@@H](C)CC)C(C)C)C(C)C,32,39.8
CC[C@H](C)[C@H](NC(=O)CNC(=O)[C@H](CO)NC(=O)[C@@H](NC(=O)[C@H](CC(=O)O)NC(C)=O)[C@@H](C)CC)C(=O)N[C@@H](CC(N)=O)C(=O)N[C@@H](C)C(=O)N[C@@H](CO)C(=O)N[C@H](C(=O)N[C@H](C(=O)N[C@@H](CC(N)=O)C(=O)N[C@H](C(=O)N[C@@H](CCC(N)=O)C(=O)N[C@@]1(C)CCC/N=C\CCC[C@@](C)(C(=O)N[C@@H](CC(C)C)C(=O)N[C@@H](CC(N)=O)C(=O)N[C@@H](CCC(=O)O)C(=O)N[C@H](C(=O)N[C@@H](C)C(=O)N[C@@H](CCCCN)C(=O)N[C@@H](CC(N)=O)C(=O)N[C@@H](CC(C)C)C(=O)N[C@@H](CC(N)=O)C(=O)N[C@@H](CCC(=O)O)C(=O)N[C@@H](CO)C(=O)N[C@@H](CC(C)C)C(=O)N[C@H](C(=O)N[C@@H](CC(=O)O)C(=O)N[C@@H](CC(C)C)C(=O)N[C@@H](CCC(N)=O)C(=O)N[C@@H](CCC(=O)O)C(=O)N[C@@H](CC(C)C)C(N)=O)[C@@H](C)CC)C(C)C)NC(=O)[C@H](CC(=O)O)NC(=O)[C@H]([C@@H](C)CC)NC(=O)[C@H](CCC(=O)O)NC1=O)[C@@H](C)CC)C(C)C)C(C)C,28.5,16.1
CC[C@H](C)[C@H](NC(=O)CNC(=O)[C@H](CO)NC(=O)[C@@H](NC(=O)[C@H](CC(=O)O)NC(C)=O)[C@@H](C)CC)C(=O)N[C@@H](CC(N)=O)C(=O)N[C@@H](C)C(=O)N[C@@H](CO)C(=O)N[C@H](C(=O)N[C@H](C(=O)N[C@@H](CC(N)=O)C(=O)N[C@H](C(=O)N[C@@H](CCC(N)=O)C(=O)N[C@@H](CCCCN)C(=O)N[C@@H](CCC(=O)O)C(=O)N[C@H](C(=O)N[C@@H](CC(=O)O)C(=O)N[C@@]1(C)CCC/C=C\CCC[C@@](C)(C(=O)N[C@@H](C)C(=O)N[C@@H](CCCCN)C(=O)N[C@@H](CC(N)=O)C(=O)N[C@@H](CC(C)C)C(=O)N[C@@H](CC(N)=O)C(=O)N[C@@H](CCC(=O)O)C(=O)N[C@@H](CO)C(=O)N[C@@H](CC(C)C)C(=O)N[C@H](C(=O)N[C@@H](CC(=O)O)C(=O)N[C@@H](CC(C)C)C(=O)N[C@@H](CCC(N)=O)C(=O)N[C@@H](CCC(=O)O)C(=O)N[C@@H](CC(C)C)C(N)=O)[C@@H](C)CC)NC(=O)[C@H](CCC(=O)O)NC(=O)[C@H](CC(N)=O)NC(=O)[C@H](CC(C)C)NC1=O)[C@@H](C)CC)[C@@H](C)CC)C(C)C)C(C)C,41,36.8
